Assays:
IRF-3 = assay: Native-PAGE and Western blotting for IRF-3 dimers; assay type: cell-based, mouse; details: macrophages pretreated with SA
Description: Rabbit anti-mouse IκBα phospho-specific Ab (pAb) was purchased from Santa Cruz Biotechnology, Inc. (Santa Cruz, Calif.). Rabbit anti-mouse MAPK pAb and rabbit anti-human phospho-IRF-3 pAb antibodies were purchased from Cell Signaling (Danvers, Mass.). Rabbit anti-mouse IRF-3 pAb was purchased from Zymed (South San Francisco, Calif.). Native-PAGE for the detection of IRF-3 dimers was carried out as described in Iwamura, T. et al. (2001) “Induction Of IRF-3/-7 Kinase And NF-kappaB in Response To Double-Stranded RNA And Virus Infection: Common And Unique Pathways,” Genes and Cells 6:375-388. Briefly, thioglycollate-elicited peritoneal macrophages were lysed following stimulation with either LPS or DMXAA as indicated. […] Membranes were probed with a 1:250 dilution of rabbit anti-mouse IRF-3 for 1 h at room temperature. Goat anti-rabbit IgG-HRP (Cell Signaling Technologies, Danvers, Mass.) at a 1:2000 dilution was used as the secondary Ab. Blots were developed with ECL Plus (Amersham Biosciences, Piscataway, N.J.).

peritoneal macrophages = assay: Quantitative real-time PCR of cytokine mRNA in murine peritoneal macrophages
MEFs = assay: RANTES protein in MEF supernatants; assay type: cell-based, mouse; details: MAVS+/+ and MAVS−/− MEFs, 24 h
Description: IFN-β protein in cell culture supernatants was measured using a custom ELISA originally described in Weinstein, S. L. et al. (2000) “Phosphatidylinositol 3-Kinase And mTOR Mediate Lipopolysaccharide-Stimulated Nitric Oxide Production In Macrophages Via Interferon-Beta,” J. Leukocyte Biol. 67:405-414, with few modifications. […] Plates were blocked with 10% FCS in 1×PBS for 2 h at room temperature. Samples and a murine IFN-β standard (NIH, Bethesda, Md.) were added to wells and incubated overnight at 4° C. […] Wells were washed 3× followed by incubation with a 1:2000 dilution of goat anti-rabbit HRP (Cell Signaling Technologies, Beverly, Mass.) in 10% FCS-PBS for 1 h at room temperature. Plates were washed 3× and developed with TMB substrate (KPL, Gaithersburg, Md.). The reaction was stopped by addition of 1N H2SO4, and plates were read at 450 nm. RANTES and TNF-α were quantified using Luminex bead-based colorimetric assays. […] For stimulation of cells, poly(I:C) was mixed with Fugene 6 transfection reagent (Roche) at a ratio of 1:1 (volume:weight) in OptiMEM medium and incubated for 15 min prior to stimulation. Culture supernatants of cells (2×10^4) seeded on 96-well plates were collected after 24 h stimulation and analyzed for RANTES levels with ELISA. ELISA was performed according to the manufacturer's instructions (R&D Systems).

[1] = peritoneal macrophages pretreated with SA

| Compound | IRF-3 dimer formation and phosphorylation of serine 396 in response to DMXAA (IRF-3) | effect on DMXAA-induced IFN-β expression (peritoneal macrophages; [1]) | effect on LPS-induced IFN-β mRNA expression (peritoneal macrophages; [1]) | TNF-α mRNA in the absence of TLR4 (peritoneal macrophages; TLR4−/− peritoneal macrophages, 2 h) | RANTES response in MAVS-deficient MEFs (MEFs) |
| --- | --- | --- | --- | --- | --- |
| O=C(O)c1ccccc1O [SA, salicylic acid, reference compound] | inhibits | dramatically reduces | essentially unaffected | – | – |
| poly I:C [reference compound] | – | – | – | induces TNF-α to wild-type levels | completely abrogates |
